Test results published in US20220409727A1, “Metal Complexes Bearing Bisstyryl-Bipyridine Ligand and Their Use as Photosensitizer Agent in One and Two-Photon Photodynamic Therapy” (Paris Sciences et Lettres, priority 2019, published 2022).
Where two headings read alike, the source gives them in different places.

Key:
[1] = Luminescence quantum yield measurements; format: physicochemical; parameters: key: fraction, relative to [Ru(bipy)3]Cl2 reference in CH3CN (Φem=5.9%); details: CH3CN, room temperature, excitation at 355 nm
Method: For the determination of the luminescence quantum yield, the samples were prepared in an CH3CN solution with an absorbance of 0.1 at 355 nm. This solution was irradiated in fluorescence quartz cuvettes (width 1 cm) using a NT342B Nd-YAG pumped optical parametric oscillator (Ekspla) at 355 nm. The emission signal was focused and collected at right angle to the excitation pathway and directed to a Princeton Instruments Acton SP-2300i monochromator. As a detector a XPI-Max 4 CCD camera (Princeton Instruments) has been used. The luminescence quantum yields were determined by comparison with the reference [Ru(bipy)3]Cl2 in CH3CN (Φem=5.9%) (Nakamaru, K., 1982) applying the following formula:
Φem, sample=Φem, reference*(Freference/Fsample)*(Isample/Ireference)*(nsample/nreference)^2
Φem=luminescence quantum yield, F=fraction of light absorbed, I=integrated emission intensities, n=refractive index, A=absorbance of the sample at irradiation wavelength.

[2] = test system: non-cancerous retinal pigment epithelium (RPE-1) cells; assay: (Photo-)cytotoxicity on 2D cell monolayers, resazurin assay, RPE-1; details: for PI (480 nm): RPE-1, dark vs 480 nm (10 min, 3.1 J/cm^2); for PI (540 nm): RPE-1, dark vs 540 nm (40 min, 9.5 J/cm^2);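 on all read-outs here: cells exposed to compound 4 h, medium exchanged, then irradiated or kept dark, 44 h further growth, viability by resorufin fluorescence (ex 540 nm, em 590 nm)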
[3] = test system: human glioblastoma astrocytoma (U373) cells; assay: (Photo-)cytotoxicity on 2D cell monolayers, resazurin assay, U373; details: for PI (480 nm): U373, dark vs 480 nm (10 min, 3.1 J/cm^2); for PI (540 nm): U373, dark vs 540 nm (40 min, 9.5 J/cm^2); for IC50: compounds 1-3 as chloride salts
[4] = Singlet oxygen measurement, indirect evaluation (RNO absorbance); format: physicochemical; details: indirect
Method: For the measurement in CH3CN: The samples were prepared in an air-saturated CH3CN solution containing the complex with an absorbance of 0.2 at the irradiation wavelength, N,N-dimethyl-4-nitrosoaniline aniline (RNO, 24 μM) and imidazole (12 mM). For the measurement in PBS buffer: The samples were prepared in an air-saturated PBS solution containing the complex with an absorbance of 0.1 at the irradiation wavelength, N,N-dimethyl-4-nitrosoaniline aniline (RNO, 20 μM) and histidine (10 mM). The samples were irradiated on 96 well plates with an Atlas Photonics LUMOS BIO irradiator for different times. The absorbance of the samples was measured during these time intervals with a SpectraMax M2 Microplate Reader (Molecular Devices). The difference in absorbance (A0−A) at 420 nm for the CH3CN solution or at 440 nm a PBS buffer solution was calculated and plotted against the irradiation times. From the plot the slope of the linear regression was calculated as well as the absorbance correction factor determined. The singlet oxygen quantum yields were calculated using the same formulas as used for the direct evaluation.

[5] = test system: human cervical carcinoma (HeLa) cells; assay: (Photo-)cytotoxicity on 2D cell monolayers, resazurin assay, HeLa; format: cell-based; details: for PI (480 nm): dark vs 480 nm (10 min, 3.1 J/cm^2); for PI (540 nm): dark vs 540 nm (40 min, 9.5 J/cm^2)
From the text: Before an experiment, the cells were passaged three times.

[6] = test system: mouse colon carcinoma (CT-26) cells; assay: (Photo-)cytotoxicity on 2D cell monolayers, resazurin assay, CT-26; details: for PI (480 nm): CT-26, dark vs 480 nm (10 min, 3.1 J/cm^2); for PI (540 nm): CT-26, dark vs 540 nm (40 min, 9.5 J/cm^2); for IC50: compounds 1-3 as chloride salts
Method: (§1) The human glioblastoma astrocytoma (U373) cell line was cultured in MEM medium supplemented with 10% FBS, 1% NEAA (non-essential amino-acids) and 1% penicillin/streptomycin. […] The human retinal epithelial cells (RPE-1, non-cancerous cells immortalized with hTERT) were cultured in DMEM-F12 medium supplemented with 10% FBS and 1% penicillin/streptomycin. All cell lines were obtained from the American Type Culture Collection (ATCC) and cultured at 37° C. and 5% CO2. Before an experiment, the cells were passaged three times.
(§2) The cytotoxicity of the compounds was assessed by measuring cell viability using a fluorometric resazurin assay. The cultivated cells were seeded in triplicates in 96 well plates with a density of 4000 cells per well in 100 μL of media. After 24 h, the medium was removed and the cells were treated with increasing concentrations of the compound diluted in cell media achieving a total volume of 200 μL. The cells were incubated with the compound for 4 h. After this time, the media was removed and replaced with 200 μL of fresh medium. For the phototoxicity studies, the cells were exposed to light with an Atlas Photonics LUMOS BIO irradiator. Each well was constantly illuminated with either a 480 nm or 540 nm irradiation. During this time, the temperature was maintained constantly at 37° C. The cells were grown in the incubator for additional 44 h. For the determination of the dark cytotoxicity, the cells were not irradiated and after the medium exchange directly incubated for 44 h. After this time, the medium was replaced with fresh medium containing resazurin with a final concentration of 0.2 mg/mL. After 4 h incubation, the amount of the fluorescent product resorufin was determined upon excitation at 540 nm and measurement its emission at 590 nm using a SpectraMax M2 Microplate Reader (Molecular Devices).
(§3) The obtained data was analyzed with the GraphPad Prism software.

[7] = test system: human glioblastoma astrocytoma (U373) cells
[8] = Luminescence lifetime measurements; format: physicochemical; details: excitation at 355 nm; for τ/ns air (Lifetime): air saturated CH3CN; for τ/ns degassed (Lifetime): degassed CH3CN
Method: For the determination of the lifetimes, the samples were prepared in an air saturated and in a degassed CH3CN solution with an absorbance of 0.2 at 355 nm. This solution was irradiated in fluorescence quartz cuvettes (width 1 cm) using a NT342B Nd-YAG pumped optical parametric oscillator (Ekspla) at 355 nm. The emission signal was focused and collected at right angle to the excitation pathway and directed to a Princeton Instruments Acton SP-2300i monochromator. As a detector a R928 photomultiplier tube (Hamamatsu) has been used.

[9] = test system: mouse colon carcinoma (CT-26) cells
Method: as §1, §2, §3

[10] = Emission measurement in CH3CN; format: physicochemical; details: room temperature, excitation at 355 nm
Method: The absorption of the samples was measured with a SpectraMax M2 Spectrometer (Molecular Devices). The emission was measured by irradiation of the sample in fluorescence quartz cuvettes (width 1 cm) using a NT342B Nd-YAG pumped optical parametric oscillator (Ekspla) at 355 nm. Luminescence was focused and collected at right angle to the excitation pathway and directed to a Princeton Instruments Acton SP-2300i monochromator. As a detector, a XPI-Max 4 CCD camera (Princeton Instruments) has been used.

[11] = Singlet oxygen measurement, direct evaluation (1O2 luminescence at 1270 nm); format: physicochemical
Method: The samples were prepared in an air saturated CH3CN or D2O solution with an absorbance of 0.2 at 450 nm. This solution was irradiated in fluorescence quartz cuvettes (width 1 cm) using a mounted M450LP1 LED (Thorlabs) whose irradiation, centered at 450 nm, has been focused with aspheric condenser lenses. The intensity of the irradiation has been varied using a T-Cube LED Driver (Thorlabs) and measured with an optical power and energy meter. The emission signal was focused and collected at right angle to the excitation pathway and directed to a Princeton Instruments Acton SP-2300i monochromator. A longpass glass filter was placed in front of the monochromator entrance slit to cut off light at wavelengths shorter than 850 nm. As a detector an EO-817L IR-sensitive liquid nitrogen cooled germanium diode detector (North Coast Scientific Corp.) has been used. The singlet oxygen luminesce at 1270 nm was measured by recording spectra from 1100 to 1400 nm. For the data analysis, the singlet oxygen luminescence peaks at different irradiation intensities were integrated. The resulting areas were plotted against the percentage of the irradiation intensity and the slope of the linear regression calculated. The absorbance of the sample was corrected with an absorbance correction factor. As reference for the measurement Rose Bengal (Φ=76%) (Kochevar, I. E. and Redmond, R. W., 2000) was used and the singlet oxygen quantum yields were calculated using the following formula:
Φsample=Φreference*(Ssample/Sreference)*(Ireference/Isample)
Φ=singlet oxygen quantum yield, S=slope of the linear regression of the plot of the areas of the singlet oxygen luminescence peaks against the irradiation intensity, I=absorbance correction factor, […] of the irradiation source, A=absorbance of the sample at irradiation wavelength.

[12] = read-out: IC50 480 nm (10 min, 3.1 J/cm^2), U373, irradiation 480 nm (10 min, 3.1 J/cm^2)
[13] = read-out: IC50 dark, U373, dark, 4 h incubation
[14] = dark, 4 h incubation, compounds 1-3 as chloride salts, read-out: IC50 dark
[15] = read-out: IC50 480 nm (10 min, 3.1 J/cm^2), irradiation 480 nm (10 min, 3.1 J/cm^2), compounds 1-3 as chloride salts
[16] = read-out: IC50 540 nm (40 min, 9.5 J/cm^2), irradiation 540 nm (40 min, 9.5 J/cm^2), compounds 1-3 as chloride salts
[17] = read-out: IC50 540 nm (40 min, 9.5 J/cm^2), CT-26, irradiation 540 nm (40 min, 9.5 J/cm^2)
[18] = read-out: IC50 dark, CT-26, dark, 4 h incubation

Compound: C(=C\c1ccnc(-c2cc(/C=C/c3ccccc3)ccn2)c1)/c1ccccc1.C(=C\c1ccnc(-c2cc(/C=C/c3ccccc3)ccn2)c1)/c1ccccc1.C(=C\c1ccnc(-c2cc(/C=C/c3ccccc3)ccn2)c1)/c1ccccc1.F[P-](F)(F)(F)(F)F.F[P-](F)(F)(F)(F)F.[Ru+2] [Compound 1]
- ϕem (Luminescence Quantum Yield) [1]: 0.019
- PI (480 nm) [2]: >3.2
- PI (540 nm) [2]: >3.2
- PI (480 nm) [3]: >1.9
- PI (540 nm) [3]: >1.2
- IC50 [3, 12]: 51.7 ± 3.2 µM
- IC50 [3, 13]: > 100 µM
- Singlet oxygen quantum yield, indirect 450 nm CH3CN [4]: 66%
- Singlet oxygen quantum yield, indirect 450 nm PBS [4]: 5%
- Singlet oxygen quantum yield, indirect 540 nm CH3CN [4]: 61%
- Singlet oxygen quantum yield, indirect 540 nm PBS [4]: 3%
- PI (480 nm) [5]: >3.4
- PI (540 nm) [5]: >2.1
- IC50 [5, 14]: > 100 µM
- IC50 [5, 15]: 29.5 ± 1.2 µM
- IC50 [5, 16]: 48.7 ± 4.5 µM
- PI (480 nm) [6]: >4.9
- PI (540 nm) [6]: >3.0
- IC50 [6, 17]: 33.4 ± 3.5 µM
- IC50 [6, 18]: > 100 µM
- IC50 [7]: 83.1 ± 6.7 µM
- τ/ns air (Lifetime) [8]: 86 ns
- τ/ns degassed (Lifetime) [8]: 385 ns
- IC50 [9]: 20.3 ± 1.8 µM
- λem/nm (Emission maximum) [10]: 677 nm
- Singlet oxygen quantum yield, direct 450 nm CH3CN [11]: 65%

Compound: CN(C)c1ccc(/C=C/c2ccnc(-c3cc(/C=C/c4ccc(N(C)C)cc4)ccn3)c2)cc1.CN(C)c1ccc(/C=C/c2ccnc(-c3cc(/C=C/c4ccc(N(C)C)cc4)ccn3)c2)cc1.CN(C)c1ccc(/C=C/c2ccnc(-c3cc(/C=C/c4ccc(N(C)C)cc4)ccn3)c2)cc1.F[P-](F)(F)(F)(F)F.F[P-](F)(F)(F)(F)F.[Ru+2] [Compound 2, [Ru((E,E′)-4,4′-Bis[p-(N,N-dimethylamino)styryl]-2,2′-bipyridine)3][PF6]2]
- ϕem (Luminescence Quantum Yield) [1]: <0.001
- PI (480 nm) [2]: >2.6
- PI (540 nm) [2]: >2.0
- PI (480 nm) [3]: >2.0
- PI (540 nm) [3]: >1.6
- IC50 [3, 12]: 49.1 ± 6 µM
- IC50 [3, 13]: > 100 µM
- Singlet oxygen quantum yield, indirect 450 nm CH3CN [4]: 25%
- Singlet oxygen quantum yield, indirect 450 nm PBS [4]: 3%
- Singlet oxygen quantum yield, indirect 540 nm CH3CN [4]: 16%
- Singlet oxygen quantum yield, indirect 540 nm PBS [4]: 1%
- PI (480 nm) [5]: >3.4
- PI (540 nm) [5]: >1.9
- IC50 [5, 14]: > 100 µM
- IC50 [5, 15]: 29.4 ± 8.3 µM
- IC50 [5, 16]: 52.3 ± 6.1 µM
- PI (480 nm) [6]: >2.3
- PI (540 nm) [6]: >1.6
- IC50 [6, 17]: 62.5 ± 8.2 µM
- IC50 [6, 18]: > 100 µM
- IC50 [7]: 61.4 ± 5.6 µM
- τ/ns air (Lifetime) [8]: 48 ns
- τ/ns degassed (Lifetime) [8]: 222 ns
- IC50 [9]: 42.6 ± 3.8 µM
- λem/nm (Emission maximum) [10]: 709 nm
- Singlet oxygen quantum yield, direct 450 nm CH3CN [11]: 18%

Compound: F[P-](F)(F)(F)(F)F.F[P-](F)(F)(F)(F)F.[Ru+2].c1cnc2c(c1)ccc1cccnc12.c1cnc2c(c1)ccc1cccnc12.c1cnc2c(c1)ccc1cccnc12 [[Ru(1,10-phenanthroline)3][PF6]2, reference compound]
- IC50 [3, 12]: > 100 µM
- IC50 [3, 13]: > 100 µM
- Singlet oxygen quantum yield, indirect 450 nm CH3CN [4]: 23%
- Singlet oxygen quantum yield, indirect 450 nm PBS [4]: 2%
- Singlet oxygen quantum yield, indirect 540 nm CH3CN [4]: 22%
- Singlet oxygen quantum yield, indirect 540 nm PBS [4]: 2%
- IC50 [5, 14]: > 100 µM
- IC50 [5, 15]: > 100 µM
- IC50 [5, 16]: > 100 µM
- IC50 [6, 17]: > 100 µM
- IC50 [6, 18]: > 100 µM
- IC50 [7]: > 100 µM
- IC50 [9]: > 100 µM
- Singlet oxygen quantum yield, direct 450 nm CH3CN [11]: 25%

Compound: [Ru(4,7-Diphenyl-1,10-phenanthroline)3][PF6]2 [reference compound]
- PI (480 nm) [2]: 13.4
- PI (540 nm) [2]: 10.1
- PI (480 nm) [3]: 7.8
- PI (540 nm) [3]: 8.4
- IC50 [3, 12]: 1.3 ± 0.2 µM
- IC50 [3, 13]: 10.1 ± 0.7 µM
- Singlet oxygen quantum yield, indirect 450 nm CH3CN [4]: 47%
- Singlet oxygen quantum yield, indirect 450 nm PBS [4]: 4%
- Singlet oxygen quantum yield, indirect 540 nm CH3CN [4]: 45%
- Singlet oxygen quantum yield, indirect 540 nm PBS [4]: 3%
- PI (480 nm) [5]: 12.1
- PI (540 nm) [5]: 7.7
- IC50 [5, 14]: 8.5 ± 0.4 µM
- IC50 [5, 15]: 0.7 ± 0.2 µM
- IC50 [5, 16]: 1.1 ± 0.2 µM
- PI (480 nm) [6]: 7.0
- PI (540 nm) [6]: 5.6
- IC50 [6, 17]: 0.5 ± 0.2 µM
- IC50 [6, 18]: 2.8 ± 0.5 µM
- IC50 [7]: 1.2 ± 0.3 µM
- IC50 [9]: 0.4 ± 0.2 µM
- Singlet oxygen quantum yield, direct 450 nm CH3CN [11]: 44%
